Data from patent publication US20220323416A1, “Ferroportin-Inhibitors For The Use In The Prevention And Treatment Of Kidney Injuries” (Vifor (International) AG, priority 2019, published 2022).

Experiments:
[1] = tested on: C57BL/6 mice; assay: Reduction of serum iron by Fpn127 in C57BL/6 mice; assay type: in vivo, mouse; conditions: naïve C57BL/6 mice; for Serum iron: 4 h post dosing; for Serum iron (hypoferremia sustained): 8 h post dosing
Procedure: FIG. 2: Serum iron levels in naïve C57BL/6 mice treated with Fpn127 at 120 mg/kg or 300 mg/kg for 4 h or 8 h. Vehicle was 0.5% methylcellulose in water
To determine the dose of Fpn127 that causes sustained serum iron reduction, C57BL/6 mice received either 120 mg/kg or 300 mg/kg of Fpn127 po for 4 h or 8 h.

[2] = tested on: guinea pigs; conditions: cited from earlier work
[3] = i.v. dosing after RBC transfusion

O=C(NCc1ncccc1F)c1coc(CCNCCc2nc3ccccc3[nH]2)n1 [Fpn127]
Serum iron ([1]; 120 mg/kg po): reduced significantly
Serum iron (hypoferremia sustained) ([1]; 120 mg/kg po): only the dose of 300 mg/kg sustained the hypoferremia
Serum iron ([1]; 300 mg/kg po): reduced significantly
Serum iron (hypoferremia sustained) ([1]; 300 mg/kg po): sustained the hypoferremia

O=C(NCc1ncccc1F)c1csc(CCNCc2nc3ccccc3[nH]2)n1 [VIT-2653]
Hb levels following exchange transfusion [2, 3]: significantly improved
NTBI levels following exchange transfusion [2, 3]: significantly improved
Total iron in kidneys following transfusion [2, 3]: can be reduced
Occurrence of changes in plasma creatinine >0.3 mg/dL (indicator of early AKI) ([2]; i.v. dosing, transfused animals): significantly reduced
Cellular injury ([2]; i.v. immediately after acute red blood cell transfusions): attenuation of cellular injury
